This test addresses T1, N-type Ca2+ channels in IMR-32 cells (Homo sapiens, UniProt Q00975).
T1 construct: host or cells: IMR-32 cells, differentiated with dibutyryl cAMP and bromodeoxyuridine
The test can be described thus: Inhibition of N-type calcium flux in IMR-32 cells (Indo-1 fluorescence, nitrendipine present). In kind it is cell-based. The note with it: for inhibition at 1 µM / inhibition at 10 µM: IMR-32; for IC50: IMR-32 cells, 5 μM nitrendipine, K+ depolarization. The gist of the method: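 With L-type flux blocked by 5 μM nitrendipine, N-type Ca2+ entry was read as the Indo-1 emission ratio (400/490 nm, excitation 350 nm) at 30° C after KCl depolarization.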
In general terms: A change in cytosolic calcium serves as a functional read-out for many receptors and channels.

The results in this text go back to patent publication US6423689B1, “Peptidyl calcium channel blockers” (Warner-Lambert Company, priority 1997, dated 2002).

Each structure is given as a SMILES string.

T1 sequence (Q00975 whole entry): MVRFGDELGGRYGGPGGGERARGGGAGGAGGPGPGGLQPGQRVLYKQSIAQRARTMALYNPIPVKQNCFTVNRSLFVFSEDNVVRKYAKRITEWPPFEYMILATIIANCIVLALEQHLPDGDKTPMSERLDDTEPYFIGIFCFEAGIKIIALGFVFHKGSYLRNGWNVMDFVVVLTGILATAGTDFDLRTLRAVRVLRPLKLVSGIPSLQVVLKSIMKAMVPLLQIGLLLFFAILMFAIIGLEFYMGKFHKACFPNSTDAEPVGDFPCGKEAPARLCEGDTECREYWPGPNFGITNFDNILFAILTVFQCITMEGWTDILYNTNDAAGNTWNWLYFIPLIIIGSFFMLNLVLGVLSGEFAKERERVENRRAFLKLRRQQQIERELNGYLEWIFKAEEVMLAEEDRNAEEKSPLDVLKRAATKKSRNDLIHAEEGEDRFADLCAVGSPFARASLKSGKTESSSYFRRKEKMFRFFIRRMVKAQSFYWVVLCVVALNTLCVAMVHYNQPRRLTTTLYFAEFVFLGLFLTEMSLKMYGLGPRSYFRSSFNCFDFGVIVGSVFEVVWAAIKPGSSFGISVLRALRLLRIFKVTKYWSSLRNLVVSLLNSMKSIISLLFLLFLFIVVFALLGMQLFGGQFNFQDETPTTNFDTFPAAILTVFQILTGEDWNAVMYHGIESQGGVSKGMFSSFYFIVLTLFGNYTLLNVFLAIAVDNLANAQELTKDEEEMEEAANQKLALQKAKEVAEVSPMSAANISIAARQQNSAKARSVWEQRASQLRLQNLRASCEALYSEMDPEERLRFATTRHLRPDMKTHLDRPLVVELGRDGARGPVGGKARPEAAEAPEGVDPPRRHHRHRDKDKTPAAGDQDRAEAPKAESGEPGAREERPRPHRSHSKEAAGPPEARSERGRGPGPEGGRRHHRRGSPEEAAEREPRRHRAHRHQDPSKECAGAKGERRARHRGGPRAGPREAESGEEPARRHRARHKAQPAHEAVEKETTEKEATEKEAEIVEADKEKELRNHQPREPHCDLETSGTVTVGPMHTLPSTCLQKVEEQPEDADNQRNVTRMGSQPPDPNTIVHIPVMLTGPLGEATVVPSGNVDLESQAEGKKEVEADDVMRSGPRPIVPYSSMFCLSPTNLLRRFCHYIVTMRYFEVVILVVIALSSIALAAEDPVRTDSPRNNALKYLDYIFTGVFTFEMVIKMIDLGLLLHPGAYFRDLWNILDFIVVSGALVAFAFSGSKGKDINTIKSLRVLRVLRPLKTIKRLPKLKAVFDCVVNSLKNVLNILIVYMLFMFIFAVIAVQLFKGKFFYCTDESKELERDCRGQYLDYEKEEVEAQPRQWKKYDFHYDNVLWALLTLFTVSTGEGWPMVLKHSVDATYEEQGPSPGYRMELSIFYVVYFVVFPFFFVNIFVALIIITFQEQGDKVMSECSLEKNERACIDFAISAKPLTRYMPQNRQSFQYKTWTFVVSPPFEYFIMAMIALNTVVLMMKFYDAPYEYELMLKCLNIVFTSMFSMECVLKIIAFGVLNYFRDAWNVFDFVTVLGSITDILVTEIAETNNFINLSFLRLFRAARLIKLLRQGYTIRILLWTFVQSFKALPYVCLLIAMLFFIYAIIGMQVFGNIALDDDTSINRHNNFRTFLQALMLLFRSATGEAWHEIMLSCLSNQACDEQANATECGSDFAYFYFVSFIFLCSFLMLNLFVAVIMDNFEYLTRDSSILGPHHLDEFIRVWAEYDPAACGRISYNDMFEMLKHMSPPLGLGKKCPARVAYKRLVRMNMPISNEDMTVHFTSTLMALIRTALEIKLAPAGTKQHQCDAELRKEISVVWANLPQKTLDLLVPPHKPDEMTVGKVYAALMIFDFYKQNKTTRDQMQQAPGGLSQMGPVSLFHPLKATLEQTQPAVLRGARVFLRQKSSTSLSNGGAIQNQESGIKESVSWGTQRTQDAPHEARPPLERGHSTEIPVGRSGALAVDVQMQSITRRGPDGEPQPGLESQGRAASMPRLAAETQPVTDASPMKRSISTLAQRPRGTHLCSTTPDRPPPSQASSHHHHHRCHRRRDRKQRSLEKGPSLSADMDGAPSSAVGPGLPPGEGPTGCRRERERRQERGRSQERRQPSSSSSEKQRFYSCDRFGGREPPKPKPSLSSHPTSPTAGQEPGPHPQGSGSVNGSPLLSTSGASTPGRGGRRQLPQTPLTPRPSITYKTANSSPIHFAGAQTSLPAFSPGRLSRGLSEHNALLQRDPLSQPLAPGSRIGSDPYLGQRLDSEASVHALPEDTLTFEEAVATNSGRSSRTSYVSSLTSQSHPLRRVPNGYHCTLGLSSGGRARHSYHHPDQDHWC
T1 sequence (P54289 25-956 partner limits assumed): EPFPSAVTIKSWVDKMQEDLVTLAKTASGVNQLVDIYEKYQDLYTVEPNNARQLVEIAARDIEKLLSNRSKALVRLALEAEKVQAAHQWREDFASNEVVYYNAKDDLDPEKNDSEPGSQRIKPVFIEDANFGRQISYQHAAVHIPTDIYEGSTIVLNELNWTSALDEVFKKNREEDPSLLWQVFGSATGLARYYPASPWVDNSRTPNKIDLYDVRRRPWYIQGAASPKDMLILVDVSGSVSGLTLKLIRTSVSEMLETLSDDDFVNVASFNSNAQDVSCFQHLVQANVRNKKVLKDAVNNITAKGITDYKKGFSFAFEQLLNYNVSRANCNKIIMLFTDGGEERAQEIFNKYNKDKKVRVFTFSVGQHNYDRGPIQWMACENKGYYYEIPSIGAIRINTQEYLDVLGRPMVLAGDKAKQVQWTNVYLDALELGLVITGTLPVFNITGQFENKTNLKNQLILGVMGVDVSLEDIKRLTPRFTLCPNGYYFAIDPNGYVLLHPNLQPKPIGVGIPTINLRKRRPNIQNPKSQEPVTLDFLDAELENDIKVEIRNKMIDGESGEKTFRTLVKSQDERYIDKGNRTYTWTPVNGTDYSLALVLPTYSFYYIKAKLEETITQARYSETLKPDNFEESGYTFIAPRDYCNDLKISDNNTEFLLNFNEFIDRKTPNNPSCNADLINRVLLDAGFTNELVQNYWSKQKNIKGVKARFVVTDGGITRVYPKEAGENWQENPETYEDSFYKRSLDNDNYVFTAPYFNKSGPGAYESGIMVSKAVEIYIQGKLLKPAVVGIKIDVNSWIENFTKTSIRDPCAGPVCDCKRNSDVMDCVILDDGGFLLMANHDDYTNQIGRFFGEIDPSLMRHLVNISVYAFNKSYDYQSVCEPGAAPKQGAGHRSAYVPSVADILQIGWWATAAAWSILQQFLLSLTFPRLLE
T1 sequence (P54289 957-1103 partner limits assumed): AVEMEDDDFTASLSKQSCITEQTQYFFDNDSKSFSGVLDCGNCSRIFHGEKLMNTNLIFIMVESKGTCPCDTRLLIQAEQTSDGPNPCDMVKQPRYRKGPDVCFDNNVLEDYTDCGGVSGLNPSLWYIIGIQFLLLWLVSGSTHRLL
T1 sequence (P54284 whole entry partner): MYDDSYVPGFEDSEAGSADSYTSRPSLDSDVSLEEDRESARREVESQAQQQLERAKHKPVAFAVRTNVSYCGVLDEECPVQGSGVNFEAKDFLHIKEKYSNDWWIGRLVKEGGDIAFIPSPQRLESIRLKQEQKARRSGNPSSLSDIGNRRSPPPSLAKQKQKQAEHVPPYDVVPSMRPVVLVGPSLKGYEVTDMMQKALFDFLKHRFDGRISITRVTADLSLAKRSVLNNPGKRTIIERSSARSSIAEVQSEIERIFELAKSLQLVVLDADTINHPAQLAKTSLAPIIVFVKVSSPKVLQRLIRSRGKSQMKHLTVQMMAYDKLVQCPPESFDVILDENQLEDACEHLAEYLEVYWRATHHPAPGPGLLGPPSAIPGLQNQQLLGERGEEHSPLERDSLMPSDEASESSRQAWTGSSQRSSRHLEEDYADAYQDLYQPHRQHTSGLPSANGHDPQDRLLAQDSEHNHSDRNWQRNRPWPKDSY

A word on the inhibition: it is the change of the read-out against control, counted positive when it falls. What is called IC50 is the midpoint of a concentration-inhibition curve. Turning to `CC(C)C[C@H](NC(=O)N1CCCCCC1)C(=O)N[C@@H](Cc1ccc(OCc2ccccc2)cc1)C(=O)Nc1nccs1` [Example 207, [S-(R*,R*)]-Azepane-1-carboxylic acid {1-[2-(4-benzyloxy-phenyl)-1-(thiazol-2-ylcarbamoyl)-ethylcarbamoyl]-3-methyl-butyl}-amide], the inhibition at 1 µM was 21%, the inhibition at 10 µM was 59% and the IC50 was 6.2 µM.

On to `CC(C)C[C@H](NC(=O)N1CCCCCC1)C(=O)N[C@@H](Cc1ccc(OCc2ccccc2)cc1)C(=O)NC1CCCCCC1` [Example 208, [S-(R*,R*)]-Azepane-1-carboxylic acid {1-[2-(4-benzyloxy-phenyl)-1-cycloheptylcarbamoyl-ethylcarbamoyl]-3-methyl-butyl}-amide], for which the inhibition at 1 µM turned out to be 38%, the inhibition at 10 µM is 81% and the IC50 came out at 1.8 µM.

For the molecule `CC(C)C[C@H](NC(=O)N1CCCCCC1)C(=O)N[C@@H](Cc1ccc(OCc2ccccc2)cc1)C(=O)NC1CC1` [Example 209, [S-(R*,R*)]-Azepane-1-carboxylic acid {1-[2-(4-benzyloxy-phenyl)-1-cyclopropylcarbamoyl-ethylcarbamoyl]-3-methyl-butyl}-amide], the inhibition at 1 µM came out at 27%, the inhibition at 10 µM amounted to 82% and the IC50 worked out at 2.5 µM.

Take `COc1ccc(NC(=O)[C@H](Cc2ccc(OCc3ccccc3)cc2)NC(=O)[C@H](CC(C)C)NC(=O)N2CCCCCC2)cc1` [Example 210, [S-(R*,R*)]-Azepane-1-carboxylic acid {1-[2-(4-benzyloxy-phenyl)-1-(4-methoxy-phenylcarbamoyl)-ethylcarbamoyl]-3-methyl-butyl}-amide]: the inhibition at 1 µM was 39% and the IC50 was 1.5 µM.

For `CC(C)C[C@H](NC(=O)N1CCCCCC1)C(=O)N[C@@H](Cc1ccc(OCc2ccccc2)cc1)C(=O)Nc1ccc(CCO)cc1` [Example 211, [S-(R*,R*)]-Azepane-1-carboxylic acid (1-{2-(4-benzyloxy-phenyl)-1-[4-(2-hydroxy-ethyl)-phenylcarbamoyl]-ethylcarbamoyl}-3-methyl-butyl)-amide], the inhibition at 1 µM is 49%, the inhibition at 10 µM came to 81% and the IC50 amounted to 1.1 µM.

As for `CC(=O)c1ccc(NC(=O)[C@H](Cc2ccc(OCc3ccccc3)cc2)NC(=O)[C@H](CC(C)C)NC(=O)N2CCCCCC2)cc1` [Example 212, [S-(R*,R*)]-Azepane-1-carboxylic acid {1-[1-(4-acetyl-phenylcarbamoyl)-2-(4-benzyloxy-phenyl)-ethylcarbamoyl]-3-methyl-butyl}-amide], the inhibition at 1 µM was 34%, the inhibition at 10 µM was 66% and the IC50 came out at 1.9 µM.

On to `CC(C)C[C@H](NC(=O)N1CCCCCC1)C(=O)N[C@@H](Cc1ccc(OCc2ccccc2)cc1)C(=O)Nc1ccc(Oc2ccccc2)cc1` [Example 213, [S-(R*,R*)]-Azepane-1-carboxylic acid {1-[2-(4-benzyloxy-phenyl)-1-(4-phenoxy-phenylcarbamoyl)-ethylcarbamoyl]-3-methyl-butyl}-amide], for which the inhibition at 1 µM was determined as 30%, the inhibition at 10 µM came out at 33% and the IC50 turned out to be 2.4 µM.

With `CC(C)C[C@H](NC(=O)N1CCCCCC1)C(=O)N[C@@H](Cc1ccc(OCc2ccccc2)cc1)C(=O)Nc1cccc(C(F)(F)F)c1` [Example 214, [S-(R*,R*)]-Azepane-1-carboxylic acid {1-[2-(4-benzyloxy-phenyl)-1-(3-trifluoromethyl-phenylcarbamoyl)-ethylcarbamoyl]-3-methyl-butyl}-amide], the inhibition at 1 µM was 42%, the inhibition at 10 µM came to 51% and the half-inhibitory concentration (IC50) amounted to 1.4 µM.

Regarding `CC(C)C[C@H](NC(=O)N1CCCCCC1)C(=O)N[C@@H](Cc1ccc(OCc2ccccc2)cc1)C(=O)NCc1ccc(CN)cc1` [Example 217, [S-(R*,R*)]-Azepane-1-carboxylic acid {1-[1-(4-aminomethyl-benzylcarbamoyl)-2-(4-benzyloxy-phenyl)-ethylcarbamoyl]-3-methyl-butyl}-amide], the inhibition at 1 µM was 35%, the inhibition at 10 µM stood at 75% and the IC50 amounted to 5 µM.

For the molecule `CC(C)CC(NC(=O)N1CCCCCC1)C(=O)NC(Cc1ccc(OCc2ccccc2)cc1)C(=O)N1CCCC1CNc1ccccc1` (stereo not drawn) [Example 218, Azepane-1-carboxylic acid {1-[1-(4-benzyloxy-benzyl)-2-oxo-2-(2-phenylaminomethyl-pyrrolidin-1-yl)-ethylcarbamoyl]-3-methyl-butyl}-amide], the inhibition at 1 µM was 62% and the inhibition at 10 µM was 93%.

For `CC(C)CC(NC(=O)N1CCCCCC1)C(=O)NC(Cc1ccc(OCc2ccccc2)cc1)C(=O)NCC(O)CN` (stereo not drawn) [Example 219, Azepane-1-carboxylic acid {1-[1-(3-amino-2-hydroxy-propylcarbamoyl)-2-(4-benzyloxy-phenyl)-ethylcarbamoyl]-3-methyl-butyl}-amide], the inhibition at 1 µM came out at 6% and the inhibition at 10 µM stood at 23%.

For the molecule `CC(C)CC(NC(=O)N1CCCCCC1)C(=O)NC(Cc1ccc(OCc2ccccc2)cc1)C(=O)NC(CO)C(O)c1ccccc1` (stereo not drawn) [Example 227, [S-(R*,R*)]-Azepane-1-carboxylic acid {1-[2-(4-benzyloxy-phenyl)-1-(2-hydroxy-1-hydroxymethyl-2-phenyl-ethylcarbamoyl)-ethylcarbamoyl]-3-methyl-butyl}-amide], the “Inhibition of Calcium Flux in IMR-32 Cells % Inhibition at 1 μM” value turned out to be 19% and the “Inhibition of Calcium Flux in IMR-32 Cells % Inhibition at 10 μM” value was 86%.

As to `CC(C)CC(NC(=O)N1CCCCCC1)C(=O)NC(Cc1ccc(OCc2ccccc2)cc1)C(=O)NC(C)CN(C)C` (stereo not drawn) [Example 230, Azepane-1-carboxylic acid {1-[2-(4-benzyloxy-phenyl)-1-(2-dimethylamino-1-methyl-ethylcarbamoyl)-ethylcarbamoyl]-3-methyl-butyl}-amide], the inhibition at 1 µM amounted to 34% and the inhibition at 10 µM amounted to 81%.

`CC(C)CC(NC(=O)N1CCCCCC1)C(=O)NC(Cc1ccc(OCc2ccccc2)cc1)C(=O)N1CCCC(O)C1` (stereo not drawn) [Example 234, Azepane-1-carboxylic acid {1-[1-(4-benzyloxy-benzyl)-2-(3-hydroxy-piperidin-1-yl)-2-oxo-ethylcarbamoyl]-3-methyl-butyl}-amide]: the inhibition at 1 µM amounted to 32% and the inhibition at 10 µM came out at 67%.

Take `CC(C)CC(NC(=O)N1CCCCCC1)C(=O)NC(Cc1ccc(OCc2ccccc2)cc1)C(=O)NC(C)CNCC(C)N` (stereo not drawn) [Example 239, Azepane-1-carboxylic acid {1-[1-[2-(2-amino-propylamino)-1-methyl-ethylcarbamoyl]-2-(4-benzyloxy-phenyl)-ethylcarbamoyl]-3-methyl-butyl}-amide]: the inhibition at 1 µM turned out to be 22% and the inhibition at 10 µM came out at 23%.

For `CC(C)C[C@H](NC(=O)N1CCCCCC1)C(=O)N[C@@H](Cc1ccc(OCc2ccccc2)cc1)C(=O)NCC(C)NC(C)C` (stereo partly drawn) [Example 242], the “Inhibition of Calcium Flux in IMR-32 Cells % Inhibition at 1 μM” value is given as 23%.

Consider `CCC(C)NC(=O)C(Cc1ccc(OCc2ccccc2)cc1)NC(=O)C(CC(C)C)NC(=O)N1CCCCCC1` (stereo not drawn) [Example 243, Azepane-1-carboxylic acid {1-[2-(4-benzyloxy-phenyl)-1-sec-butylcarbamoyl-ethylcarbamoyl]-3-methyl-butyl}-amide], for which the inhibition at 1 µM stood at 48% and the inhibition at 10 µM was 89%.

As to `CC(=O)N[C@H]1CCN(C(=O)[C@H](Cc2ccc(OCc3ccccc3)cc2)NC(=O)[C@H](CC(C)C)NC(=O)N2CCCCCC2)C1` [Example 244], the “Inhibition of Calcium Flux in IMR-32 Cells % Inhibition at 1 μM” value turned out to be 24% and the “Inhibition of Calcium Flux in IMR-32 Cells % Inhibition at 10 μM” value came to 73%.

Take `CCC(COC)NC(=O)C(Cc1ccc(OCc2ccccc2)cc1)NC(=O)C(CC(C)C)NC(=O)N1CCCCCC1` (stereo not drawn) [Example 245, Azepane-1-carboxylic acid {1-[2-(4-benzyloxy-phenyl)-1-(1-methoxymethyl-propylcarbamoyl)-ethylcarbamoyl]-3-methyl-butyl}-amide]: the inhibition at 1 µM was found to be 57% and the inhibition at 10 µM came out at 89%.

Turning to `CC(C)CC(NC(=O)N1CCCCCC1)C(=O)NC(Cc1ccc(OCc2ccccc2)cc1)C(=O)NCC1CCN(Cc2ccccc2)C1` (stereo not drawn) [Example 250, Azepane-1-carboxylic acid (1-{2-(4-benzyloxy-phenyl)-1-[(1-benzyl-pyrrolidin-3-ylmethyl)-carbamoyl]-ethylcarbamoyl}-3-methyl-butyl)-amide], the IC50 amounted to 0.27 µM.

With `CC(C)C[C@H](NC(=O)N1CCCCCC1)C(=O)N[C@@H](Cc1ccc(OCc2ccccc2)cc1)C(=O)N(CCO)Cc1ccccc1` [Example 251, S-(R*,R*)]-Azepane-1-carboxylic acid {1-[1-[benzyl-(2-hydroxy-ethyl)-carbamoyl]-2-(4-benzyloxy-phenyl)-ethylcarbamoyl]-3-methyl-butyl}-amide], the IC50 came out at 0.74 µM.

With `CC(C)C[C@H](NC(=O)N1CCCCCC1)C(=O)N[C@@H](Cc1ccc(OCc2ccccc2)cc1)C(=O)NCCNCc1ccccc1` [Example 252, [S-(R*,R*)]-Azepane-1-carboxylic acid {1-[1-(2-benzylamino-ethylcarbamoyl)-2-(4-benzyloxy-phenyl)-ethylcarbamoyl]-3-methyl-butyl}-amide], the concentration for half-maximal inhibition (IC50) was found to be 0.28 µM.

For `CC(C)C[C@H](NC(=O)N1CCCCCC1)C(=O)N[C@@H](Cc1ccc(OCc2ccccc2)cc1)C(=O)Nc1cccnc1` [Example 254, [S-(R*,R*)]-Azepane-1-carboxylic acid {1-[2-(4-benzyloxy-phenyl)-1-(pyridin-3-ylcarbamoyl)-ethylcarbamoyl]-3-methyl-butyl}-amide], the inhibition at 1 µM came to 39%, the inhibition at 10 µM turned out to be 83% and the IC50 was 1.6 µM.
